Reference: article PMC12281475, “Mediator Kinase Inhibitor Selectivity and Activity in Colorectal Cancer” (ACS Chemical Biology, 2025)

Tests used:
[1] = tested on: CDK8; parameters: method as in numbers not given; settings: reporter displacement assay; previously characterized compounds, no method in this paper; ref numbers not given; read-out: IC50 for in vitro CDK8 binding; cited from earlier work
[2] = target: CDK20_CycH (Homo sapiens, UniProt Q8IZL9); experiment: Radiometric protein kinase assay (33PanQinase), CDK20_CycH; assay type: biochemical
[3] = target: T1, CDK19_CycC (Homo sapiens, UniProt Q9BWU1); experiment: Radiometric protein kinase assay (33PanQinase), CDK19_CycC; assay type: biochemical; settings: slope of the IC50 fit
T1 construct: purchased Reaction Biology

[4] = target: CDK20_CycT1 (Homo sapiens, UniProt Q8IZL9); experiment: Radiometric protein kinase assay (33PanQinase), CDK20_CycT1; assay type: biochemical
[5] = target: T2, CDK8_CycC (Homo sapiens, UniProt P49336); experiment: Radiometric protein kinase assay (33PanQinase), CDK8_CycC; assay type: biochemical
T2 construct: purchased Reaction Biology

[6] = target: CDK17_p35NCK (Homo sapiens, UniProt Q00537); experiment: Radiometric protein kinase assay (33PanQinase), CDK17_p35NCK; assay type: biochemical; settings: slope of the IC50 fit
[7] = target: T3, CDK2_CycA2 (Homo sapiens, UniProt P24941); experiment: Radiometric protein kinase assay (33PanQinase), CDK2_CycA2; assay type: biochemical
T3 construct: purchased Reaction Biology

[8] = target: T4, CDK1_CycA2 (Homo sapiens, UniProt P06493); experiment: Radiometric protein kinase assay (33PanQinase), CDK1_CycA2; assay type: biochemical; settings: slope of the IC50 fit
T4 construct: purchased Reaction Biology

[9] = target: T5, CDK5_p35NCK (Homo sapiens, UniProt Q00535); experiment: Radiometric protein kinase assay (33PanQinase), CDK5_p35NCK; assay type: biochemical
T5 construct: purchased Reaction Biology

[10] = target: CDK11B 357-795_CycK (Homo sapiens, UniProt P21127); experiment: Radiometric protein kinase assay (33PanQinase), CDK11B 357-795_CycK; assay type: biochemical
[11] = target: T6, CDK6_CycD2 (Homo sapiens, UniProt Q00534); experiment: Radiometric protein kinase assay (33PanQinase), CDK6_CycD2; assay type: biochemical
T6 construct: purchased Reaction Biology

[12] = target: T7, CDK6_CycD1 (Homo sapiens, UniProt Q00534); experiment: Radiometric protein kinase assay (33PanQinase), CDK6_CycD1; assay type: biochemical
T7 construct: purchased Reaction Biology

[13] = target: T8, CDK3_CycE1 (Homo sapiens, UniProt Q00526); experiment: Radiometric protein kinase assay (33PanQinase), CDK3_CycE1; assay type: biochemical
T8 construct: purchased Reaction Biology

[14] = target: CDK14_CycY (Homo sapiens, UniProt O94921); experiment: Radiometric protein kinase assay (33PanQinase), CDK14_CycY; assay type: biochemical
[15] = target: T9, CDK3_CycC (Homo sapiens, UniProt Q00526); experiment: Radiometric protein kinase assay (33PanQinase), CDK3_CycC; assay type: biochemical; settings: slope of the IC50 fit
T9 construct: purchased Reaction Biology

[16] = target: T10, CDK15_CycA2 (Homo sapiens, UniProt Q96Q40); experiment: Radiometric protein kinase assay (33PanQinase), CDK15_CycA2; assay type: biochemical
T10 construct: purchased Reaction Biology

[17] = target: T11, CDK9_CycT1 (Homo sapiens, UniProt P50750); experiment: Radiometric protein kinase assay (33PanQinase), CDK9_CycT1; assay type: biochemical
T11 construct: purchased Reaction Biology

[18] = target: T12, CDK5_p25NCK (Homo sapiens, UniProt Q00535); experiment: Radiometric protein kinase assay (33PanQinase), CDK5_p25NCK; assay type: biochemical
T12 construct: purchased Reaction Biology

[19] = target: T13, CDK2_CycE1 (Homo sapiens, UniProt P24941); experiment: Radiometric protein kinase assay (33PanQinase), CDK2_CycE1; assay type: biochemical
T13 construct: purchased Reaction Biology

[20] = target: T14, CDK12_CycK (Homo sapiens, UniProt Q9NYV4); experiment: Radiometric protein kinase assay (33PanQinase), CDK12_CycK; assay type: biochemical; settings: slope of the IC50 fit
T14 construct: purchased Reaction Biology

[21] = target: T15, CDK16_CycY (Homo sapiens, UniProt Q00536); experiment: Radiometric protein kinase assay (33PanQinase), CDK16_CycY; assay type: biochemical
T15 construct: purchased Reaction Biology

[22] = target: T16, CDK9_CycK (Homo sapiens, UniProt P50750); experiment: Radiometric protein kinase assay (33PanQinase), CDK9_CycK; assay type: biochemical
T16 construct: purchased Reaction Biology

[23] = target: T17, CDK13_CycK (Homo sapiens, UniProt Q14004); experiment: Radiometric protein kinase assay (33PanQinase), CDK13_CycK; assay type: biochemical; settings: slope of the IC50 fit
T17 construct: purchased Reaction Biology

[24] = target: T18, CDK6_CycD3 (Homo sapiens, UniProt Q00534); experiment: Radiometric protein kinase assay (33PanQinase), CDK6_CycD3; assay type: biochemical
T18 construct: purchased Reaction Biology

[25] = target: T19, CDK7_CycH_MAT1 (Homo sapiens, UniProt P50613); experiment: Radiometric protein kinase assay (33PanQinase), CDK7_CycH_MAT1; assay type: biochemical
T19 construct: purchased Reaction Biology

[26] = target: T20, CDK1_CycE1 (Homo sapiens, UniProt P06493); experiment: Radiometric protein kinase assay (33PanQinase), CDK1_CycE1; assay type: biochemical
T20 construct: purchased Reaction Biology

[27] = target: T21, CDK4_CycD2 (Homo sapiens, UniProt P11802); experiment: Radiometric protein kinase assay (33PanQinase), CDK4_CycD2; assay type: biochemical
T21 construct: purchased Reaction Biology

[28] = target: CDK18_CycY (Homo sapiens, UniProt Q07002); experiment: Radiometric protein kinase assay (33PanQinase), CDK18_CycY; assay type: biochemical
[29] = target: T22, CDK2_CycD1 (Homo sapiens, UniProt P24941); experiment: Radiometric protein kinase assay (33PanQinase), CDK2_CycD1; assay type: biochemical; settings: slope of the IC50 fit
T22 construct: purchased Reaction Biology

[30] = target: T23, CDK4_CycD3 (Homo sapiens, UniProt P11802); experiment: Radiometric protein kinase assay (33PanQinase), CDK4_CycD3; assay type: biochemical
T23 construct: purchased Reaction Biology

[31] = target: T24, CDK1_CycB1 (Homo sapiens, UniProt P06493); experiment: Radiometric protein kinase assay (33PanQinase), CDK1_CycB1; assay type: biochemical; settings: slope of the IC50 fit
T24 construct: purchased Reaction Biology

[32] = target: T25, CDK4_CycD1 (Homo sapiens, UniProt P11802); experiment: Radiometric protein kinase assay (33PanQinase), CDK4_CycD1; assay type: biochemical
T25 construct: purchased Reaction Biology

[33] = target: CDK10_CycQ (Homo sapiens, UniProt Q15131); experiment: Radiometric protein kinase assay (33PanQinase), CDK10_CycQ; assay type: biochemical
[34] = highest assay concentration 1.00E-05 M
[35] = highest assay concentration 1.00E-05 M, read-out: IC50

T5 sequence (Q00535 whole entry): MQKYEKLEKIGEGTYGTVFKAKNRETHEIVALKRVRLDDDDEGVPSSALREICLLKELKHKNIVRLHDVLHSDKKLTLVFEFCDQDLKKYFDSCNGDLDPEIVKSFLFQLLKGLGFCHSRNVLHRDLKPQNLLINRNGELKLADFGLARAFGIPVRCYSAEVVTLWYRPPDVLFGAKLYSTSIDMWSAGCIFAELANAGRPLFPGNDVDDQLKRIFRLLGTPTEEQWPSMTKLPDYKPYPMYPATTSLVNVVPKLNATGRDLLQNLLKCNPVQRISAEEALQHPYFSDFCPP
T5 sequence (Q15078 whole entry partner): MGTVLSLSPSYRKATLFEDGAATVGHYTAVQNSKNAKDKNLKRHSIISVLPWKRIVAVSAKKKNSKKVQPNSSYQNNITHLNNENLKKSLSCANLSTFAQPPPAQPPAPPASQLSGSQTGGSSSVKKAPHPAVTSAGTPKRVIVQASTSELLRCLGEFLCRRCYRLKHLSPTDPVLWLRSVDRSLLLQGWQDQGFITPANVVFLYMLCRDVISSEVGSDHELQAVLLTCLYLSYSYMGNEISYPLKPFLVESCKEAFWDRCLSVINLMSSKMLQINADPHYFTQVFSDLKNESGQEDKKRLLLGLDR
T12 sequence (Q00535 whole entry): as the sequence (Q00535 whole entry) above
T12 sequence (Q15078 99-307 partner limits assumed): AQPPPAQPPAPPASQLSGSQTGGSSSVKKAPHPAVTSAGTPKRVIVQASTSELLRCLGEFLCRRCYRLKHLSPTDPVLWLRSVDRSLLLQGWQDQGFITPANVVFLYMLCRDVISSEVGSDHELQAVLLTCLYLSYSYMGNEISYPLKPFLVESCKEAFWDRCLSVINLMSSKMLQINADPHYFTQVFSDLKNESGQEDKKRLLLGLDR
Chain of CDK20_CycT1 (Q8IZL9 whole entry): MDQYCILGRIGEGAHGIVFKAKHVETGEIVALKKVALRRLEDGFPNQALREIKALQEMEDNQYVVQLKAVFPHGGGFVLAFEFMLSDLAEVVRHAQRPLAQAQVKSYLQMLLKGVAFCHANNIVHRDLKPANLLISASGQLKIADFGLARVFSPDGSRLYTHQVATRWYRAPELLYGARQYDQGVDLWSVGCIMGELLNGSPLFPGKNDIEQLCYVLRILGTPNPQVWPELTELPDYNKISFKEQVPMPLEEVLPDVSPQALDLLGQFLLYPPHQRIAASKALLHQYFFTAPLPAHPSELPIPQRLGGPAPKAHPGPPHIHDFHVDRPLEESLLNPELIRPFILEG
Chain of CDK20_CycH (Q8IZL9 whole entry): as above
T6 sequence (Q00534 whole entry): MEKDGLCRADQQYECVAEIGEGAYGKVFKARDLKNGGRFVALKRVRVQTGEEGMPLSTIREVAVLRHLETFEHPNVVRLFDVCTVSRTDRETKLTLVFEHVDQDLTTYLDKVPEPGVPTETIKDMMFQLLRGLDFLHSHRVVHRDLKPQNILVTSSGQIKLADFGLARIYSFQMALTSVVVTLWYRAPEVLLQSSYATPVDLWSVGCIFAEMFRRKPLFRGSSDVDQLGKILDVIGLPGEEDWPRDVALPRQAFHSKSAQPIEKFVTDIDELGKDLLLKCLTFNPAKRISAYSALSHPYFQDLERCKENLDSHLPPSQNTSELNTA
T6 sequence (P30279 whole entry partner): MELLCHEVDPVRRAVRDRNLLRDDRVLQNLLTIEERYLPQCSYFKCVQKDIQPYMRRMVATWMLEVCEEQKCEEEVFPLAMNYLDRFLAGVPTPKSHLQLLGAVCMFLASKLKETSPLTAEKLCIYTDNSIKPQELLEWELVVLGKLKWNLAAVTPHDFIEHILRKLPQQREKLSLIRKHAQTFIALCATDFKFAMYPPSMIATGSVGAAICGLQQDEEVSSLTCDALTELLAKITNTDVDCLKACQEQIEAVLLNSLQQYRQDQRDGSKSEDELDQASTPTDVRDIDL
T18 sequence (Q00534 whole entry): as the sequence (Q00534 whole entry) above
T18 sequence (P30281 whole entry partner): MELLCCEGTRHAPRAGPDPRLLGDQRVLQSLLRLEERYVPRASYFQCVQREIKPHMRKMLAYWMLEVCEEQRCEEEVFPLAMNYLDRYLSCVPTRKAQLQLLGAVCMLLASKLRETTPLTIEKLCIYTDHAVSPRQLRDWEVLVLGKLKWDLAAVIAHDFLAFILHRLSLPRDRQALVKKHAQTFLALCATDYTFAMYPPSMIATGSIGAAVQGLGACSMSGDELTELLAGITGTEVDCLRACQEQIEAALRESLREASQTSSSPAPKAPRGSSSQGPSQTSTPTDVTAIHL
T15 sequence (Q00536 whole entry): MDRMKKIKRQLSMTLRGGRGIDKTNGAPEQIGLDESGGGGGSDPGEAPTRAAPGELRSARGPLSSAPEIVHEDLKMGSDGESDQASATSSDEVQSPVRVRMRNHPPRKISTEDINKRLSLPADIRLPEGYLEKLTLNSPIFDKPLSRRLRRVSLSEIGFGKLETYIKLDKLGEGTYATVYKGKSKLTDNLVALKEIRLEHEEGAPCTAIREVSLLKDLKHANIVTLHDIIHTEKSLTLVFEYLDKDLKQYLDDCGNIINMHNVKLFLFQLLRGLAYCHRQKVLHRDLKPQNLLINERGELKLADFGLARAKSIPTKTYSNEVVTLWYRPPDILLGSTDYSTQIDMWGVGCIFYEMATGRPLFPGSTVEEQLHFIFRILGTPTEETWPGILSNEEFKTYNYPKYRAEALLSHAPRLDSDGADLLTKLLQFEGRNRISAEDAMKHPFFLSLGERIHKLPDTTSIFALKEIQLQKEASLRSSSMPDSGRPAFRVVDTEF
T15 sequence (Q8ND76 whole entry partner): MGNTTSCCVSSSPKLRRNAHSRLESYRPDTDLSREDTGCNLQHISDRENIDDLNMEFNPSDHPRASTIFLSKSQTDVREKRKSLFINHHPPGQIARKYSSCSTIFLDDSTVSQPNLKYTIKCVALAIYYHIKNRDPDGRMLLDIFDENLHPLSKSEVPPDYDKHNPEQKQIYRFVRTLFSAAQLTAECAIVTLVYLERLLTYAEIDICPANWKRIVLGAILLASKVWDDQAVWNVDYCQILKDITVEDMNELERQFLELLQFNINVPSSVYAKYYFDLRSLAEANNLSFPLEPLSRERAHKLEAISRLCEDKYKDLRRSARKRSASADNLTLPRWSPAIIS
T16 sequence (P50750 whole entry): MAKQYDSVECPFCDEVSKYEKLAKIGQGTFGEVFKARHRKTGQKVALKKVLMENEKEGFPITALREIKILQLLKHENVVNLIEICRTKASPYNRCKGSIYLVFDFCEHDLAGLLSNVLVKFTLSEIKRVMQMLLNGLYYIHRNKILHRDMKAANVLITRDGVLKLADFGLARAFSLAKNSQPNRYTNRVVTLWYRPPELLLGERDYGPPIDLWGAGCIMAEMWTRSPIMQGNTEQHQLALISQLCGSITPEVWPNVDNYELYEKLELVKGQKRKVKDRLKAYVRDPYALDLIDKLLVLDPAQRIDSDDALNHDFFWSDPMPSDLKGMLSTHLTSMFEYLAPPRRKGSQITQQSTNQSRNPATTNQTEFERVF
T16 sequence (O75909 whole entry partner): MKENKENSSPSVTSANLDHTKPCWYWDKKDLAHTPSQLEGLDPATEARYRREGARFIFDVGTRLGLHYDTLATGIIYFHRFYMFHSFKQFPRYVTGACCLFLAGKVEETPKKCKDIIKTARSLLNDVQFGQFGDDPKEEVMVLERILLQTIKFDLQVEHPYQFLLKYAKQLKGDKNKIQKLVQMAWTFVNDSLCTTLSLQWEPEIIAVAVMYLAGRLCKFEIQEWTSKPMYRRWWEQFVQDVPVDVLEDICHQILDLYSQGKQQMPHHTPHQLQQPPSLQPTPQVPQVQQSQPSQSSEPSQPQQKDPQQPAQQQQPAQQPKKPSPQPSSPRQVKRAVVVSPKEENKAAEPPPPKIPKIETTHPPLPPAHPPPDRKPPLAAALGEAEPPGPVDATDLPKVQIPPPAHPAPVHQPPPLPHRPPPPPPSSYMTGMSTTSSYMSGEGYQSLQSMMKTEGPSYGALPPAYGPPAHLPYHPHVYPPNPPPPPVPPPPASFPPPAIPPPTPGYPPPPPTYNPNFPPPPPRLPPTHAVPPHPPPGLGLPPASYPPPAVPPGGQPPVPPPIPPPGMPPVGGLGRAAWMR
Chain of CDK14_CycY (O94921 whole entry): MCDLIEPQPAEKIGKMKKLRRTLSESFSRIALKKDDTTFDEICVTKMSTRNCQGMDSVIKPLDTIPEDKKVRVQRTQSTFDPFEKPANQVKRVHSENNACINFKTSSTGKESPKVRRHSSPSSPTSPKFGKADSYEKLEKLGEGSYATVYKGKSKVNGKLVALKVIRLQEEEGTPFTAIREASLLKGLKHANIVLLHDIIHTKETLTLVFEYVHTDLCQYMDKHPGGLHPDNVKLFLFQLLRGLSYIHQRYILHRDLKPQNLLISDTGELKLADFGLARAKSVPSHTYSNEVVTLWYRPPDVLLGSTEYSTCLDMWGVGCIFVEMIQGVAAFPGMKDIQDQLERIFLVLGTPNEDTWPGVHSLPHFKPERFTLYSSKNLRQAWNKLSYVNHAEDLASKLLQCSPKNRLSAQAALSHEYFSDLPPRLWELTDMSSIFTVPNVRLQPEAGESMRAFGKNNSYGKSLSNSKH
Chain of CDK14_CycY (Q8ND76 whole entry partner): as the sequence (Q8ND76 whole entry partner) above

## Cc1n[nH]c2ncc(C(=O)N3CCC[C@@H]3c3ccc(Cl)cc3)cc12 [MSC2530819]
[1]
  IC50: 0.59 µM

## CN1CCN(C(=O)c2ccc3cc(CCNc4ncnc5ccc(C#N)cc45)ccc3c2)CC1 [Senexin B, reference compound]
[2]; [34]
  IC50: > 10 µM
[2]; slope of the IC50 fit
  Hill Slope: -0.32
[3]
  Hill Slope: -0.53
[4]; [34]
  IC50: > 10 µM
[4]; slope of the IC50 fit
  Hill Slope: -0.45
[5]; [35]
  IC50: 0.165 µM
[5]; slope of the IC50 fit
  Hill Slope: -0.56
[6]
  Hill Slope: -0.16
[7]; [35]
  IC50: > 10 µM
[7]; slope of the IC50 fit
  Hill Slope: -0.76
[8]
  Hill Slope: -0.17
[9]; [34]
  IC50: > 10 µM
[9]; slope of the IC50 fit
  Hill Slope: -0.43
[10]; [34]
  IC50: > 10 µM
[10]; slope of the IC50 fit
  Hill Slope: -0.19
[11]; [34]
  IC50: > 10 µM
[11]; slope of the IC50 fit
  Hill Slope: -0.36
[12]; [34]
  IC50: > 10 µM
[12]; slope of the IC50 fit
  Hill Slope: -0.17
[13]; [35]
  IC50: > 10 µM
[13]; slope of the IC50 fit
  Hill Slope: -0.36
[14]; [34]
  IC50: > 10 µM
[14]; slope of the IC50 fit
  Hill Slope: -0.57
[15]
  Hill Slope: -0.01
[16]; [34]
  IC50: > 10 µM
[16]; slope of the IC50 fit
  Hill Slope: -0.78
[17]; [34]
  IC50: 9.43 µM
[17]; slope of the IC50 fit
  Hill Slope: -0.82
[18]; [34]
  IC50: > 10 µM
[18]; slope of the IC50 fit
  Hill Slope: -0.24
[19]; [35]
  IC50: > 10 µM
[19]; slope of the IC50 fit
  Hill Slope: -0.46
[20]
  Hill Slope: -0.18
[21]; [34]
  IC50: > 10 µM
[21]; slope of the IC50 fit
  Hill Slope: -0.95
[22]; [34]
  IC50: 5.16 µM
[22]; slope of the IC50 fit
  Hill Slope: -0.6
[23]
  Hill Slope: -0.12
[24]; [34]
  IC50: > 10 µM
[24]; slope of the IC50 fit
  Hill Slope: -0.32
[25]; [34]
  IC50: > 10 µM
[25]; slope of the IC50 fit
  Hill Slope: -0.55
[26]; [35]
  IC50: > 10 µM
[26]; slope of the IC50 fit
  Hill Slope: -0.4
[27]; [34]
  IC50: > 10 µM
[27]; slope of the IC50 fit
  Hill Slope: -0.64
[28]; [34]
  IC50: > 10 µM
[28]; slope of the IC50 fit
  Hill Slope: -0.39
[29]
  Hill Slope: -0.18
[30]; [34]
  IC50: > 10 µM
[30]; slope of the IC50 fit
  Hill Slope: -0.51
[31]
  Hill Slope: -0.12
[32]; [34]
  IC50: > 10 µM
[32]; slope of the IC50 fit
  Hill Slope: -0.51
[33]; [34]
  IC50: > 10 µM
[33]; slope of the IC50 fit
  Hill Slope: -0.47
